Results from patent US20170196987A1, “METHODS FOR TREATING MULTIPLE SCLEROSIS” (MedWell Laboratories Ltd., priority 2014, published 2017).

What was measured:
[1] = tested on: Experimental Autoimmune Encephalomyelitis (EAE) mice; test: Efficacy of conjugate MW001 in MOG 35-55 induced EAE (model of multiple sclerosis), Example 1; format: in vivo, female C57B1 mice
Protocol: Disease was induced in female C57B1 mice (6-8 weeks old; Harlan). Myelin Oligodendrocyte Glycoprotein (MOG) 35-55 was dissolved in saline (3 mg/ml) and emulsified (1:1) with Complete Freund's Adjuvant (CFA) (gibco; containing 5 mg of killed mycobacterium tuberculosis (MT). 200 μl of the emulsion (containing […] of MOG) were injected into the right flank of each mouse, wherein and each mouse received a 250 ng supplement of pertussis toxin (PT, List) by intraperitoneal injection. Another 250 ng of PT were injected into the right flank of each mouse 24 hours later. The mice were observed daily from the 9th day post-EAE and the clinical signs were scored as described in Table 1 below:
The MW-001 conjugate was dissolved in ethanol (60 mg/ml) and administered by intraperitoneal injection, at a dose of 50 mg/kg (10% stock in saline) twice a day, once at 9 am and once at […]. Each dose was administered in a volume of 0.2ml/mouse (˜20 g). One group of animals was treated starting at day 0 (relating to the first day on which the induction of the disease started) and the other starting at day 10, when clinical signs first appeared. […]
Calculation of the incidence of disease: The number of sick animals in each group was summed and percentage of sick animals in each group was calculated.
Calculation of the mean maximal score (MMS): The maximal scores of each of the 10 mice in the group was summed and the mean maximal score of each group was calculated as follows:Σmaximal score of each mouse/number of mice in the group.
Calculation of the group mean score (GMS):The scores of each of the 10 mice in the group was summed and the mean score per day calculated. The group mean score was calculated as follows: Σtotal score of each mouse per day/number of mice in the group.
Mean maximal score (MMS): defined as the disease severity; scored on a scale of 0-5 with graduations of 0.5 for intermediate clinical signs. The score is described in table-1

[2] = tested on: Experimental Autoimmune Encephalomyelitis (EAE) mice; test: Efficacy of oral and ip MWL-001, MP and their combination in EAE (model of brain inflammation, MS), Example 2; format: in vivo, female C57Bl mice; conditions: for Inhibition of the clinical signs of the disease: day 0 to day 15
Protocol: Induction of EAE: Disease was induced in female C57Bl mice (6-8 weeks old; Harlan). Myelin Oligodendrocyte Glycoprotein (MOG 35-55) (Hadassah ein karem) was dissolved in saline (3 mg/ml) and emulsified (1:1) with Complete Freund's Adjuvant (CFA) (gibco; containing 5 mg of killed MT). 200 microliter of emulsion (containing […] of MOG) was injected into the right flank, and each mouse received a supplement of 250 ng of pertussis toxin (List) i.p. Another 250 ng of pertussis toxin (PT) were injected 24 hours later. Mice were observed daily from the 9th day post-EAE and the clinical signs were scored as described in Table III below.
MWL-001 was dissolved in ethanol (60 mg/ml), wherein in one group MWL-001 was administered ip and in a second group MWL-001 was administered orally by gavage at a dose of 50 mg/kg (10% stock in saline). The MWL-001 was administered once a day (from day 0) at 9 am. Treatment ended on day 15 post inoculation. Each dose was administered in a volume of 0.2 ml/mouse
A third group of animals was treated ip with a dose of 25 mg/kg starting on day 7 and ending on day 15
The number of animals in each of the above five groups was between 9 and 11.
Calculation of the incidence of disease: The number of sick animals in each group was summed and percentage of sick animals in each group calculated.
Calculation of the mean maximal score (MMS): The maximal scores of each of the 10 mice in the group were summed and the mean maximal score of each group was calculated as follows:Σ maximal score of each mouse / number of mice in the group.
Calculation of the group mean score (GMS): The scores of each of the 10 mice in the group was summed and the mean score per day calculated. The group mean score was calculated as follows: Σ total score of each mouse per day/number of mice in the group.

[3] = tested on: spinal cord of EAE animal; test: Histopathology of H&E stained spinal cord sections of EAE animals; format: in vivo, mice
Excerpt: FIG. 5 (A, B and C) is a histopathological photograph of a spinal cord section stained with H&E of control untreated EAE animal. P=parenchymal infiltrates, M=meningeal infiltrates and D=diffused infiltrates.
FIG. 6 (A and B) is a histopathological photograph of a spinal cord section stained with H&E of EAE animal treated with MWL-001 (i.p.) on day 0.
FIG. 7 (A and B) is a histopathological photograph of a spinal cord section stained with H&E of EAE animal treated with MWL-001 (i.p.) on day 10.
Histopathological photographs are presented as FIGS. 5, 6 and 7).

[4] = MW-001 50 mg/kg ip twice a day, treatment started on day 0, monitored day 0 to day 20
[5] = MW-001 50 mg/kg ip twice a day, treatment started on day 10, monitored day 0 to day 20
[6] = MWL-001 i.p. treatment started at day 10, FIG. 7 A and B

CC/C=C/C/C=C/C/C=C/C/C=C/C/C=C/C/C=C/CCC(=O)N1CC(O)CC1C(=O)O (stereo not shown) [MW-001]
Effectiveness in preventing and ameliorating EAE (overall, vs untreated group) ([1]; 50 mg/kg ip twice a day, started on day 0 or day 10): highly effective in preventing and ameliorating EAE in mice | Disease incidence (sick mice/total) [1, 4]: **1/10 | Mean day of onset [1, 4]: 15 | Mean disease duration [1, 4]: 0.6 ± 0.19 days | Mean maximal score [1, 4]: 0.075 ± 0.02 | Mean score (whole group) [1, 4]: 0.2 ± 0.06 | Incidence (#dead, including sacrificed) [1, 5]: 11/11 | Mean day of onset [1, 5]: 11 ± 0.09 | Mean disease duration [1, 5]: 8.90 ± 0.2 days | Mean maximal score [1, 5]: 2.72 ± 0.14 | Mean score (whole group) [1, 5]: 1.34 ± 0.08 | Severity of disease (clinical score) ([2]; 25 mg/kg ip, day 7 to day 15, 5 in the control group, FIG. 3): 3 | Inhibition of appearance of clinical signs ([2]; 25 mg/kg ip, day 7 to day 15, FIG. 3): did not inhibit their appearance on day 10-11 post inoculation | Inhibition of the clinical signs of the disease ([2]; 50 mg/kg once a day ip, FIG. 2): effective in inhibiting the clinical signs of the disease | Inhibition of the clinical signs of the disease ([2]; 50 mg/kg once a day orally by gavage, FIG. 2): effective in inhibiting the clinical signs of the disease | Clinical signs after cessation of the drug ([2]; 50 mg/kg once a day orally or ip, a few days after treatment ended on day 15, FIG. 2): mild signs of the disease appeared for a short period of time | Mononuclear cell infiltrates in the spinal cord (meningeal) ([3]; MWL-001 i.p. on Day 0, compared to untreated, FIG. 6 A and B): very few meningeal infiltrates | Mononuclear cell infiltrates in the spinal cord (meningeal) [3, 6]: very few meningeal infiltrates | Parenchymal or diffused infiltrates in the spinal cord [3, 6]: no parenchymal or diffused infiltrates
